Measured values as given in patent publication US20080096894A1, “Anti-Bacterial Compounds” (ASTON UNIVERSITY, priority 2005, published 2008).
In brackets after ≈: the same amount, converted by molar mass. Where two headings read alike, the source gives them in different places.

Tests used:
S. haemolyticus = assay: MIC, agar dilution, multipoint inoculator; assay type: cell-based; conditions: S. haemolyticus Isolate 1, upper value of MIC reading
Description: (§1) This activity was measured using a multipoint inoculator method as follows. The MIC for each compound was measured using an agar dilution method (Onda, H., et al., Int. J. Antimicrob. Agents. 18, 263 (2001)) (Mueller Hinton agar) by means of a multipoint inoculator delivering 10^4 colony forming units per spot.

MRSA = assay: MIC, agar dilution, multipoint inoculator; assay type: cell-based, methicillin-resistant Staphylococcus aureus
Description: as §1
‘Staph’ refers to the reference strain of S. aureus (NCTC 6571). A tick in the MRSA column refers to a positive zone against MRSA strain 96-7474, and the MIC range (in μg/ml) which follows is that found against a panel of ten MRSA strains. Where MIC values are given for MRSA, these are stated as a range of values, as testing was carried out on a panel of clinical isolates.

S. aureus = assay: MIC, agar dilution, multipoint inoculator; assay type: cell-based, Staphylococcus aureus; conditions: upper value of MIC reading
Description: as §1

S. epidemisis = assay: MIC, agar dilution, multipoint inoculator; assay type: cell-based, Staphylococcus epidermidis; conditions: upper value of MIC reading
Description: as §1

E. faecalis = assay: MIC, agar dilution, multipoint inoculator; assay type: cell-based; conditions: upper value of MIC reading
Description: as §1

[1] = tested on: human mononuclear leucocytes (MNL, white blood cells); assay: direct leucocyte toxicity, tryptan blue exclusion, 18 hours; assay type: cell-based; conditions: for % Leucocyte Death: human, 18 h
Description: The in vitro assay used human mononuclear leucocytes (MNL, white blood cells) which were incubated with the test compound for 18 hours and cell death determined by tryptan blue exclusion (tryptan blue is a dye, which stains dead cells, whilst living cells extrude it).
The toxicity of 4PYcq and the aldehyde cq and pyridine-4-carboxamidrazone precursors were assessed using the same in vitro assay with human mononuclear leucocytes as that described above. The toxicity of related compounds, 2-hydroxybenzylidene-pyridine-2-carboxamidrazone 4PYbw and benzylidenepyridine-2-carboxamidrazone 4PYaa were also examined.

S. aboni = assay: MIC, agar dilution, multipoint inoculator; assay type: cell-based; conditions: S. aboni NCTC 6017; upper value of MIC reading
Description: as §1

E. faecium = assay: MIC, agar dilution, multipoint inoculator; assay type: cell-based, Enterococcus faecium; conditions: E. faecium NCTC 7171; upper value of MIC reading
Description: as §1

[2] = MRSA Isolate 1, upper value of MIC reading, in µg/mL
[3] = MRSA Isolate 2, upper value of MIC reading, in µg/mL
[4] = MRSA Isolate 3, upper value of MIC reading, in µg/mL
[5] = MRSA Isolate 4, upper value of MIC reading, in µg/mL
[6] = MRSA Isolate 5, upper value of MIC reading, in µg/mL
[7] = MRSA Isolate 6, upper value of MIC reading, in µg/mL
[8] = MRSA Isolate 7, upper value of MIC reading, in µg/mL
[9] = MRSA Isolate 8, upper value of MIC reading, in µg/mL
[10] = MRSA Isolate 9, upper value of MIC reading, in µg/mL
[11] = MRSA Isolate 10, upper value of MIC reading, in µg/mL
[12] = panel of ten MRSA strains (clinical isolates)

Structure (SMILES) | MIC (MRSA; [2]) | MIC (MRSA; [3]) | MIC (MRSA; [4]) | MIC (MRSA; [5]) | MIC (MRSA; [6]) | MIC (MRSA; [7]) | MIC (MRSA; [8]) | MIC (MRSA; [9]) | MIC (MRSA; [10]) | MIC (MRSA; [11]) | MRSA MIC range (MRSA; [12]) [µg/mL] | MIC (S. aureus; S. aureus Cowan 1) [µg/mL] | MIC (S. aureus; S. aureus NCTC 6571) [µg/mL] | MIC (S. aureus; S. aureus NCTC 10788) [µg/mL] | MIC (S. epidemisis; S. epidemisis NCTC 11047) [µg/mL] | direct MNL toxicity (in words) [1] | also measured
N/C(=N\N=C\c1ccccc1Sc1ccc(Cl)cc1)c1ccncc1 [Compound 4PYeh, N^1-[2-(4-chlorothiophenyl)benzylidene]-pyridine-4-carboxamidrazone] | – | – | – | – | – | – | – | – | – | – | – | – | – | – | – | – | MIC (S. haemolyticus; Staphylococcus haemolyticus, 18 h, read-out: MIC): 256 µg/mL (≈ 698 µM); MIC (MRSA; Staphylococcus aureus, 18 h, MRSA Isolate 1, upper value of MIC reading, read-out: MIC): 16 µg/mL (≈ 43.6 µM); MIC (MRSA; Staphylococcus aureus, 18 h, MRSA Isolate 2, upper value of MIC reading, read-out: MIC): 16 µg/mL (≈ 43.6 µM); MIC (MRSA; Staphylococcus aureus, 18 h, MRSA Isolate 3, upper value of MIC reading, read-out: MIC): 16 µg/mL (≈ 43.6 µM); MIC (MRSA; Staphylococcus aureus, 18 h, MRSA Isolate 4, upper value of MIC reading, read-out: MIC): 16 µg/mL (≈ 43.6 µM); MIC (MRSA; Staphylococcus aureus, 18 h, MRSA Isolate 5, upper value of MIC reading, read-out: MIC): 16 µg/mL (≈ 43.6 µM); MIC (MRSA; Staphylococcus aureus, 18 h, MRSA Isolate 6, upper value of MIC reading, read-out: MIC): 16 µg/mL (≈ 43.6 µM); MIC (MRSA; Staphylococcus aureus, 18 h, MRSA Isolate 7, upper value of MIC reading, read-out: MIC): 64 µg/mL (≈ 174 µM); MIC (MRSA; Staphylococcus aureus, 18 h, MRSA Isolate 8, upper value of MIC reading, read-out: MIC): 32 µg/mL (≈ 87.2 µM); MIC (MRSA; Staphylococcus aureus, 18 h, MRSA Isolate 9, upper value of MIC reading, read-out: MIC): 16 µg/mL (≈ 43.6 µM); MIC (MRSA; Staphylococcus aureus, 18 h, MRSA Isolate 10, upper value of MIC reading, read-out: MIC): 16 µg/mL (≈ 43.6 µM); MIC (MRSA; Staphylococcus aureus, MRSA, 18 h, panel of ten MRSA strains (clinical isolates), read-out: MRSA MIC range): 8 to 64 µg/mL (≈ 21.8 to 174 µM); MIC (S. aureus; Staphylococcus aureus, 18 h, S. aureus Cowan 1, read-out: MIC): 8 µg/mL (≈ 21.8 µM); MIC (S. aureus; Staphylococcus aureus, NCTC6571, 18 h, S. aureus NCTC 6571, read-out: MIC): 128 µg/mL (≈ 349 µM); MIC (S. aureus; Staphylococcus aureus, NCTC10788, 18 h, S. aureus NCTC 10788, read-out: MIC): 16 µg/mL (≈ 43.6 µM); MIC (S. epidemisis; Staphylococcus epidermidis, 18 h, S. epidemisis Isolate 1, read-out: MIC): 256 µg/mL (≈ 698 µM); MIC (S. epidemisis; Staphylococcus epidermidis, NCTC11047, 18 h, S. epidemisis NCTC 11047, read-out: MIC): 256 µg/mL (≈ 698 µM)
NC(=NN=Cc1cc([N+](=O)[O-])ccc1O)c1ccccn1 [Compound 2PYcj] | 16 | 16 | 4 | 8 | 16 | 16 | 8 | 4-8 | 8 | 8 | 4 to 32 | 32 (≈ 112 µM) | 16 (≈ 56.1 µM) | 16 (≈ 56.1 µM) | 256 (≈ 897 µM) | – | MIC (S. haemolyticus): 256 µg/mL (≈ 897 µM); MIC (E. faecalis; E. faecalis Isolate 3): 256 µg/mL (≈ 897 µM); MIC (E. faecalis; E. faecalis Isolate 5): 256 µg/mL (≈ 897 µM); MIC (S. epidemisis; S. epidemisis Isolate 1): 256 µg/mL (≈ 897 µM)
N=C(NN=Cc1ccccc1)c1ccccn1 [Compound 4PYaa, benzylidenepyridine-2-carboxamidrazone] | – | – | – | – | – | – | – | – | – | – | – | – | – | – | – | only mildly toxic in comparison | –
NC(=NN=Cc1cc(O)c(O)cc1O)c1cccnc1 [Compound 3PYcc] | 256 | 256 | 256 | 256 | 256 | 256 | 256 | 256 | 256 | 256 | 128 to 256 | 256 (≈ 940 µM) | 256 (≈ 940 µM) | 256 (≈ 940 µM) | 32 (≈ 118 µM) | – | MIC (E. faecalis; E. faecalis Isolate 1): 256 µg/mL (≈ 940 µM); MIC (E. faecalis; E. faecalis Isolate 2): 256 µg/mL (≈ 940 µM); MIC (E. faecalis; E. faecalis Isolate 4): 256 µg/mL (≈ 940 µM); MIC (E. faecalis; E. faecalis Isolate 5): 128 µg/mL (≈ 470 µM); MIC (E. faecalis; E. faecalis NCTC 5957): 256 µg/mL (≈ 940 µM); MIC (S. aboni): 256 µg/mL (≈ 940 µM); MIC (E. faecium): 256 µg/mL (≈ 940 µM)
CC(C)(C)c1ccc(/C=N/N=C(\N)c2ccccn2)cc1 [Compound 2PYae] | – | – | – | – | – | – | – | – | – | – | – | – | – | – | – | indistinguishable from the background levels | % Leucocyte Death ([1]; 0.1 mM): 1.1 ± 1.0%
N=C(NN=Cc1ccccc1O)c1ccccn1 [Compound 4PYbw, 2-hydroxybenzylidene-pyridine-2-carboxamidrazone] | – | – | – | – | – | – | – | – | – | – | – | – | – | – | – | only mildly toxic in comparison | –
N/N=C(\N)c1ccccn1 [Compound 2PY, Pyridine-2-carboxamidrazone] | – | – | – | – | – | – | – | – | – | – | – | – | – | – | – | most toxic | % Leucocyte Death ([1]; 1 mM): 12.1 ± 2.2%
NC(=NN=Cc1cc([N+](=O)[O-])ccc1O)c1cccnc1 [Compound 3PYcj] | 4 | 4 | 4 | 4 | 4 | 8 | 8 | 8 | 8 | 8 | 2 to 8 | 16 (≈ 56.1 µM) | 8 (≈ 28 µM) | 8 (≈ 28 µM) | 64 (≈ 224 µM) | – | MIC (E. faecalis; E. faecalis Isolate 1): 128 µg/mL (≈ 449 µM); MIC (E. faecalis; E. faecalis Isolate 2): 128 µg/mL (≈ 449 µM); MIC (E. faecalis; E. faecalis NCTC 5957): 256 µg/mL (≈ 897 µM); MIC (S. aboni): 256 µg/mL (≈ 897 µM); MIC (S. epidemisis; S. epidemisis Isolate 1): 128 µg/mL (≈ 449 µM)
